Experimental data taken from patent US10080366B2, “Agent for increasing sugar content in fruit” (RIKEN, priority 2012, dated 2018).
Read-outs that look alike come from different tables or passages of the source.

Legend:
[1] = system: clusters of grape (variety: Crimson); test: Estimated transpiration ratio of grape clusters (Example 9); assay type: in vivo; conditions: 10 g/L; 8 days after treatment
[2] = system: fruit of grape (variety: Red Globe); conditions: for Sugar content (%) May 16: date of application; for mass of fruit as % of the mass on the date of application: 17 days later; for Sugar content (%) Jun. 2 Calculated value: calculated from decrease in mass
Method: The mass of fruit of grape (variety: Red Globe) purchased on the market was measured. Then, the prepared agents for increasing a sugar content in a fruit were applied by spraying to the fruit of grape, which was then allowed to stand in an air-conditioned greenhouse (temperature: 25° C.). With the mass of the grape on the date of application being 100 g, the mass of the grape after the application was measured over time (date of application: May 16, 2011; dates of test: May 19, May 23, May 27, May 30, and Jun. 2, 2011). Next, on the assumption that the change in mass of the fruit was entirely due to the change in water content, the calculated value of the sugar content was determined from the amount of decrease in mass and the sugar content on the date […] of the application (calculated as follows: “the sugar content (calculated value)=the sugar content (%) on the date of application×the mass (g) on the date of application/the mass (g) on the date of measurement”). In addition, as a control, the mass of untreated grape was measured in the same manner. The results are shown in Tables 7 and 8 and FIGS. 12 to 14.

[3] = system: fruit of grape (variety: Red Globe)
Method: An agent for increasing a sugar content in a fruit (containing Sorbon T-20 as a spreader/sticker at a final concentration of 200 μL/L) diluted with water to have a potassium hydrogen carbonate concentration of 10 g/L was prepared. The mass of fruit of grape (variety: Red Globe) purchased on the market was measured. Then, the prepared agent for increasing a sugar content in a fruit was applied by spraying to the fruit of grape. Then, the fruit of grape was allowed to stand in an air-conditioned greenhouse (temperature: 25° C.), and the mass was measured over time (date of application: Apr. 27, 2011; dates of test: May 2, 2011, May 6, 2011, May 9, 2011, May 11, 2011, May 13, 2011, and May 16, 2011). In addition, as a control, the mass of untreated grape was measured on each date of measurement in the same manner.
On the basis of the measured mass, the estimated amount (cumulative value) of transpiration and the estimated amount of transpiration per day were calculated. The results are shown in Tables 5 and 6 and FIGS. 10 and 11.
Note that the vertical axis in FIG. 10 represents the mass (g) of the fruit of grape on each of the dates of measurement per 100 g of the fruit of grape on the date of application, and the vertical axis in FIG. 11 represents the estimated amount (g) of transpiration on each of the dates of measurement per 100 g of the fruit of grape on the date of application. The estimated amount (g) of transpiration on each of the dates of measurement per 100 g of the fruit of grape on the date of application=(the mass (g) of the fruit of grape on the date of application−the mass (g) of the fruit of grape on the date of measurement)/the mass of the fruit of grape on the date of application×100

[4] = system: harvested fruit of grape (variety: Barikan); conditions: for Sugar content (%) 8 days later, actually measured value / Mass (g) 6 days later (Jun. 8) / Mass (g) 8 days later (Jun. 10): 25° C.; for Mass (g) 6 days later (Jun. 8) / Mass (g) 8 days later (Jun. 10): mass 100 g on date of application; for Sugar content (%) 8 days later, calculated value: calculated from decrease in mass; for Sugar content (%) on date of application (Jun. 2): before application
Method: The fruit of grape was maintained in an air-conditioned greenhouse (temperature: 25° C.), and measured for the mass over time. The sugar content of the fruit was measured before the application and 8 days after the application with a sugar content meter. Next, on the assumption that the change in the mass of the fruit was entirely due to the change in water content, calculated values of the amount of decrease in mass and the sugar content on the date (June 2) of the application were determined […] by using the following calculation formula. (Calculated as follows: the sugar content (%) calculated value))=the sugar content (%) before application×the mass (g) on the date of application/the mass (g) on the date of measurement))

Tomato = conditions: 6 days after treatment
Mikan = conditions: 6 days after treatment
[5] = 10 g/L, May 19, 100 g on May 16
[6] = approximately 3 weeks later (19 days later)

O=C([O-])[O-].[K+].[K+] [Potassium carbonate, potassium carbonate]
Estimated transpiration ratio (%) Average [1]: 33% | Estimated transpiration ratio (%) First [1]: 35% | Estimated transpiration ratio (%) Second [1]: 31% | Sugar content (%) May 16 ([2]; 5 g/L group): 17.6% | mass of fruit as % of the mass on the date of application ([2]; 5 g/L): 66.6% | mass (g) of the fruit ([2]; 5 g/L, Jun. 2): 66.6 g | mass (g) of the fruit ([2]; 5 g/L, May 19, 100 g on May 16): 90.8 g | mass (g) of the fruit ([2]; 5 g/L, May 23): 84.5 g | mass (g) of the fruit ([2]; 5 g/L, May 27): 77 g | mass (g) of the fruit ([2]; 5 g/L, May 30): 72.1 g | Sugar content (%) Jun. 2 Calculated value ([2]; 5 g/L): 26.5% | Sugar content (%) May 16 ([2]; 10 g/L group): 18.2% | mass of fruit as % of the mass on the date of application ([2]; 10 g/L): 65% | mass (g) of the fruit ([2]; 10 g/L, Jun. 2): 65 g | mass (g) of the fruit [2, 5]: 90.6 g | mass (g) of the fruit ([2]; 10 g/L, May 23): 83.9 g | mass (g) of the fruit ([2]; 10 g/L, May 27): 75.9 g | mass (g) of the fruit ([2]; 10 g/L, May 30): 70.6 g | Sugar content (%) Jun. 2 Calculated value ([2]; 10 g/L): 28% | sugar concentration in the fruit (suggested) ([3]; 2 weeks later, assuming 20% on April 27, 20/41.4): exceeded 48% | Estimated amount (g) of transpiration per 100 g of fruit on date of application ([3]; 5 days later): 18.8 g | Mass (g) of fruit per 100 g of fruit on date of application ([3]; 5 days later (applied Apr. 27)): 81.2 g | Estimated amount (g) of transpiration per 100 g of fruit on date of application ([3]; 9 days later): 31.5 g | Mass (g) of fruit per 100 g of fruit on date of application ([3]; 9 days later): 68.5 g | Estimated amount (g) of transpiration per 100 g of fruit on date of application ([3]; 12 days later): 40 g | Mass (g) of fruit per 100 g of fruit on date of application ([3]; 12 days later): 60 g | Estimated amount (g) of transpiration per 100 g of fruit on date of application ([3]; 14 days later): 45.8 g | Mass (g) of fruit per 100 g of fruit on date of application ([3]; 14 days later): 54.2 g | Estimated amount (g) of transpiration per 100 g of fruit on date of application ([3]; 16 days later): 51.3 g | Mass (g) of fruit per 100 g of fruit on date of application ([3]; 16 days later): 48.7 g | Estimated amount (g) of transpiration per 100 g of fruit on date of application ([3]; 19 days later): 58.6 g | Mass (g) of fruit per 100 g of fruit on date of application ([3]; 19 days later): 41.4 g | mass as % of the mass on the date of application [3, 6]: 41.4% | ratio of transpiration of the fruit [3, 6]: 58.6% | mass relative to mass on the date of application ([3]; in 2 weeks): approximately ½ | estimated amount of transpiration relative to untreated fruit ([3]; in vivo): two times or more of that of the untreated fruit | decrease of mass of fruit in 8 days (June 2 to June 10) ([4]; 10 g/L): 25.56% | Sugar content (%) 8 days later, actually measured value ([4]; 10 g/L): 24.5% | Mass (g) 6 days later (Jun. 8) ([4]; 10 g/L): 80.7 g | Mass (g) 8 days later (Jun. 10) ([4]; 10 g/L): 74.5 g | action to increase the sugar content in the fruit (comparison) ([4]; 10 g/L, 8 days): the best | Sugar content (%) 8 days later, calculated value ([4]; 10 g/L): 24.2% | Sugar content (%) on date of application (Jun. 2) [4]: 18.0% | Sugar content (%) on date of application (Jun. 2) ([4]; listed as potassium carbonate): 18% | Ratio (%) of decrease in body weight of fruit (Tomato; dilution ratio 50 (20 g/L)): 21.1% | Ratio (%) of decrease in body weight of fruit (Tomato; dilution ratio 100 (10 g/L)): 18.0% | Ratio (%) of decrease in body weight of fruit (Mikan; dilution ratio 50 (20 g/L)): 12.0% | Ratio (%) of decrease in body weight of fruit (Mikan; dilution ratio 100 (10 g/L)): 12.4%

O=P([O-])([O-])OP(=O)([O-])[O-].[K+].[K+].[K+].[K+] [Tetrapotassium pyrophosphate, tetrapotassium pyrophosphate]
Estimated transpiration ratio (%) Average [1]: 32% | Estimated transpiration ratio (%) First [1]: 32% | ratio of decrease in mass per day (comparison) ([2]; 10 g/L): highest ratio of decrease in mass per day | Sugar content (%) May 16 ([2]; 10 g/L group): 16.6% | mass of fruit as % of the mass on the date of application ([2]; 10 g/L): 57.3% | mass (g) of the fruit ([2]; 10 g/L, Jun. 2): 57.3 g | mass (g) of the fruit [2, 5]: 86.7 g | mass (g) of the fruit ([2]; 10 g/L, May 23): 78.9 g | mass (g) of the fruit ([2]; 10 g/L, May 27): 69.8 g | mass (g) of the fruit ([2]; 10 g/L, May 30): 63.8 g | Sugar content (%) Jun. 2 Calculated value ([2]; 10 g/L): 29% | decrease of mass of fruit in 8 days (June 2 to June 10) ([4]; 10 g/L): 19.1% | Sugar content (%) 8 days later, actually measured value ([4]; 10 g/L): 21.5% | Mass (g) 6 days later (Jun. 8) ([4]; 10 g/L): 85.7 g | Mass (g) 8 days later (Jun. 10) ([4]; 10 g/L): 80.9 g | Sugar content (%) 8 days later, calculated value ([4]; 10 g/L): 21.6% | Sugar content (%) on date of application (Jun. 2) [4]: 17.5% | Ratio (%) of decrease in body weight of fruit (Tomato; dilution ratio 100 (10 g/L)): 13.8% | Ratio (%) of decrease in body weight of fruit (Mikan; dilution ratio 100 (10 g/L)): 10.4%
